Assay results from patent US11180767B2, “Protease deficient filamentous fungal cells and methods of use thereof” (GLYKOS FINLAND OY, priority 2012, dated 2021).
Non-standard residues stand in square brackets, D forms with d. Residues, ends and D or L forms follow the SMILES beside them. *: point of attachment. Sta = CC(C)C[C@H](N)[C@@H](O)CC(=O)O; Isovaleryl = CC(C)CC(=O)*

Key:
[1] = tested on: SIP purified proteases (PEP2, PEP3, PEP4, PEP5, GAP1, SLP2); assay: Protease activity of SIP purified fractions against casein with inhibitors (EnzChek); assay type: biochemical, Trichoderma reesei; conditions: pH 5.5
Protocol: Protease activity was then tested against casein both in the presence and absence of protease inhibitors. Protease activity against casein was tested using the EnzChek protease assay kit (Molecular probes #E6638, green fluorescent casein substrate). The working stock solution was prepared by diluting the stock to 10 μg ml in 50 mM sodium citrate, pH 5.5. The purified protease fractions (10 μl) were diluted with […] of sodium citrate, pH 5.5. 100 μl of the diluted substrate was combined with the diluted protease fractions in a 96 well sample plate. The plate was then covered and kept at 37° C. for one to three hours. Fluorescence readings were taken at one, two, and three hours with a Varioskan fluorescent plate reader (Thermo Scientific) using 485 nm excitation and 530 nm emission.
The SIP inhibitor peptide, pepstatin A, LIP peptide, SBTI, and chymostatin were used as inhibitors. […] SIP, LIP, and pepstatin A were used at a concentration of 60 μM, and SBTI was used at a concentration of 200 μg/ml.

[2] = tested on: rituximab antibody producing strain; assay: Treatment of T. reesei rituximab cultures with inhibitors; assay type: cell-based, Trichoderma reesei; conditions: small shake flasks, inhibitors added daily day 2-5
Protocol: The effectiveness of the inhibitors was also tested with the rituximab antibody producing strain, which contains a VALEKR linker sequence and the pep1 deletion. This strain was grown in triplicate, in small flasks both in presence or absence of chymostatin, SBTI, or pepstatin A. The small shake flasks contained 50 ml of TrMM plus lactose (40 g/l), spent grain extract (20 g/l), and buffer with 100 mM PIPPS at pH 5.5. The SBTI inhibitor was added to the culture at final concentrations of either 100 μg/ml or 500 μg/ml. Chymostatin was used at 100 μM, and pepstatin A was used at 10 μM. Each of the three inhibitors was added to the cultures daily on day 2, 3, 4, and 5.
Growth of the cultures was followed daily by pH from day 2 until day 7. […] In the PIPPS buffered cultures, the pH decreased from an initial pH of 5.5 down to a pH of 4.8 after day 6. With chymostatin and pepstatin A the cultures were monitored up to day 7. On day 7 the average pH for the control bottles was 4.6, while the average pH for chymostatin treated cultures was 4.9, and the average pH of pepstatin A treated cultures was 5.0.
Culture supernatant samples (30 μl) were also collected on days 3, 4, and 5 for analysis of antibody production. The analysis was performed by immunoblots using an anti-IgG heavy chain antibody AP conjugate (Sigma #A3188) and an anti-light chain antibody AP conjugate (Sigma #A3812). Each antibody was diluted 1:30,000 in TBST. The full length rituximab heavy chain is about 51 kD, the rituximab light chain CHBI fusion is about 100 kD, and the free rituximab light chain is about 28 kD.

[3] = tested on: M369 human growth hormone strain; assay: hGH production in 24 well cultures with inhibitors and supplements; assay type: cell-based, Trichoderma reesei; conditions: 24 well culture, pH 4.5, day 4 immunoblot
Protocol: To evaluate what inhibitors would best stabilize production of hGH, 24 well cultures of these strains were performed. The M369 human growth hormone strain (Δpep1Δtsp1Δslp1Δgap1Δgap2) was grown along with single components or with combinations of the following: trypsin and subtilisin inhibitor SBTI, the acidic protease inhibitor peptide SIP, the acidic protease inhibitor peptide LIP, the aspartic protease inhibitor pepstatin A free peptide, pepstatin A immobilized to agarose beads, the trypsin and subtilisin inhibitor BBI from lima bean, the […] chymostatin, and BSA. Three independent wells were chosen for control wells where no inhibitors or supplements were added. These two strains were grown in 3 ml of TrMM with diammonium citrate without ammonium sulfate, 100 mM PIPPS, 20 g/L spent grain extract, 40 g/L lactose adjusted to pH 4.5. The 24 well plates were shaken at 800 rpm, 85% humidity, and 28° C. The cultures were grown for 6 days and covered with an air permeable membrane.
Inhibitors were added first on day 1 and then daily beginning on day 3. 100 μl samples were taken from the culture wells beginning on day 3. The mycelium was spun down for 5 minutes at 13 k and the supernatant collected. From the culture supernatant 12 μl was loaded in a 4-20% SDS PAGE gel and immunoblotting made on nitrocellulose with mouse anti-hGH antibody (2 μg/ml) and goat anti-mouse IgG AP conjugated secondary antibody diluted 1:10,000 in TBST.
Estimating the expression levels relative to the 200 ng control sample, the control wells produced between 3-6 mg/L of hGH, the BSA (0.25%)/SIP (50 μM)/8BTI (0.2 mg/ml) treatment produced 24.5 mg/L, the SIP (50 μM)/8BTI (0.2 mg/ml) treatment produced 26.6 mg/L, and the pepstatin A beads/SBTI (0.2 mg/ml) addition yielded 24.5 mg/L of hGH. Therefore, using a combination of inhibitors and additives worked best increasing the production levels by at least 4-fold. The critical parameter was to include an aspartic protease inhibitor into the mix.

aspartic proteases = assay: IgG degradation by pepstatin A affinity purified aspartic proteases; assay type: biochemical, Trichoderma reesei; conditions: 10 μM pepstatin A; pH 5.5, 37°C, 20 hours
Protocol: The T. reesei fed batch fermentation supernatant (15 ml) was used to batch bind proteases to the resin in 35 ml of buffer containing 50 mM sodium acetate, 0.2 M NaCl, pH 3.0. The column was washed with the same binding buffer and bound protein was removed with elution buffer (50 mM Tris-HCL, 1 M NaCl, pH 8.5). Fractions of 0.5 ml were collected. In total 42 μg of protease was purified. The peak fraction contained 0.04 μg/μl protein. 30 μl of each fraction was mixed with 6 μl of Laemmli sample buffer containing β-mercaptoethanol. The samples were heated at 95° C. for 5 minutes before being loaded into a 4-15% PAGE gel (BioRad mini-protean TGX precast gel) along with a broad range prestained molecular weight marker (BioRad). The gel was run in SDS PAGE running buffer for 30 minutes at 100 V, and then stained with GelCode (Thermo Scientific) blue stain.
Protein (0.8 μg) from the peak fraction (F3) was then incubated with IgG (50 μg ml) in sodium citrate buffer (50 mM, pH 5.5) at 37° C. for 20 hours (FIG. 2). The protein was incubated either in the presence or absence of 10 μM pepstatin A. The antibody mixture was combined with Laemmli sample buffer and heated at 95° C. for 5 minutes. These samples were then loaded into a 4-15% PAGE gel (BioRad mini-protean TGX precast gel) along with a broad range prestained molecular weight marker (BioRad). […]

SMILES: CC(C)CC(=O)N[C@H](C(=O)N[C@H](C(=O)N[C@@H](CC(C)C)[C@@H](O)CC(=O)N[C@@H](C)C(=O)N[C@@H](CC(C)C)[C@@H](O)CC(=O)O)C(C)C)C(C)C [pepstatin A] (Isovaleryl-VV[Sta]A[Sta]-OH)
- proteases inhibited ([1]; SIP, LIP, pepstatin A 60 μM, SBTI 200 μg/ml): inhibited only aspartic proteases
- inhibition of SIP purified protease activity against casein ([1]; FIG. 11): a large portion of the SIP protease activity was inhibited
- effect on culture growth (followed by pH) [2]: small reduction in growth
- effect on hGH production [3]: negative effect on the growth hormone production
- IgG degradation by aspartic proteases (aspartic proteases): inhibited
